Data published in US11427544B2, “Histone deacetylase 6 inhibitors and use thereof” (TAIPEI MEDICAL UNIVERSITY, priority 2016, dated 2022).
Like-named read-outs stand apart in the source and are kept apart here.

What was measured:
[1] = target: T1, HDAC1 (Homo sapiens, UniProt Q13547); test: Fluorogenic HDAC assay, HDAC1; format: biochemical; conditions: recombinant HDAC1; read-out: Enzyme IC50 HDAC1
T1 construct: purchased BPS Bioscience Corp
Source text: (§1) Of note, there are eighteen human HDACs. Eleven of them, designated as HDAC1-11, are zinc-dependent. Seven of them, designated as Sirt1-7, are NAD+-dependent.
(§2) Fluorogenic HDAC assay kits were used to assess the ability of HDAC inhibitors to inhibit deacetylation of lysine residues on a substrate by recombinant proteins HDAC1, 3, 4, 5, 6, 7, 8, 9 and Sirt1 according to the manufacturer's instructions (BPS Bioscience Corp., San Diego, Calif., USA).

[2] = target: T2, HDAC6 (Homo sapiens, UniProt Q9UBN7); test: Fluorogenic HDAC assay, HDAC6; format: biochemical; conditions: recombinant HDAC6; read-out: Enzyme IC50 HDAC6
T2 construct: purchased BPS Bioscience Corp
T2 sequence (Q9UBN7 1-1215): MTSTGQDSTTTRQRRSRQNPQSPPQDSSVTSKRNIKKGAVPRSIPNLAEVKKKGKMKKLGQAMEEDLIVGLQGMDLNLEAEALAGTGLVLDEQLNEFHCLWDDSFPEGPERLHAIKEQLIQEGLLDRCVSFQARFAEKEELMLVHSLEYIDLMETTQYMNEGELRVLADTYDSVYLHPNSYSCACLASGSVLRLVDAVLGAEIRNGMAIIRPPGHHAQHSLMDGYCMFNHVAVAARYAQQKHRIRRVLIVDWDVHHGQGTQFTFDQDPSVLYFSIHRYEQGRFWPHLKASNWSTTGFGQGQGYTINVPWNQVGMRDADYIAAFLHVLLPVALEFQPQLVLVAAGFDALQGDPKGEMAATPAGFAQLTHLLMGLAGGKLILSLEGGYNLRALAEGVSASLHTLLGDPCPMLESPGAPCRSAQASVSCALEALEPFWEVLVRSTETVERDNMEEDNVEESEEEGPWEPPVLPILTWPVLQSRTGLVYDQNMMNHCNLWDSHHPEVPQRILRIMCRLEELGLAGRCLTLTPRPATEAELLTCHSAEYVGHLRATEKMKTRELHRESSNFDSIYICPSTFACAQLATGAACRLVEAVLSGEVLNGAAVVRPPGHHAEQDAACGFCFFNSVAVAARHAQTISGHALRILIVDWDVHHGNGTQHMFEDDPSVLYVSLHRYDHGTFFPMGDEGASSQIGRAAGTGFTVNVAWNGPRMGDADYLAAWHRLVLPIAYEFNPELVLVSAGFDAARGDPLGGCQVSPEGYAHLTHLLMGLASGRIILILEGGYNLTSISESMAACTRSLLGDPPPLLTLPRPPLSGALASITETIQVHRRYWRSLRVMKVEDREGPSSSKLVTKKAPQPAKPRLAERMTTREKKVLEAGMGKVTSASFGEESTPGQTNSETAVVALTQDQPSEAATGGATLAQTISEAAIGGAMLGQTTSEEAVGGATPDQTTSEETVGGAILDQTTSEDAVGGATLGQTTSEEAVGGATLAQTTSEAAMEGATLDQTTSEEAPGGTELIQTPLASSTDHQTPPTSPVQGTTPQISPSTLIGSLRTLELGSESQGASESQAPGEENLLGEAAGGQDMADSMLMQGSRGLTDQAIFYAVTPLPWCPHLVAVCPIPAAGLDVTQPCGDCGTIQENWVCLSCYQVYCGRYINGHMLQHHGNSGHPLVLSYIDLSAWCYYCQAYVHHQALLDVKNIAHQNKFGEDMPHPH
Source text: as §1, §2

[3] = tested on: PC-3 prostate cancer cell line; test: Antiproliferative activity, PC-3; format: cell-based, human
Method: (§3) A study was conducted to evaluate the inhibitory activity of compounds of Formula (I) in inhibiting HDAC6, antiproliferative activity of test compounds in suppressing cancer cell growth, and selectivity of inhibiting HDAC6 over other HDAC isoforms.
(§4) The study was performed according to the protocol reported in Hsieh et al., Cell Death and Disease, 2014, April; 5:e1166.
(§5) Shown in Table 2 below are antiproliferative activities (measured by their half maximal concentration for inhibiting cell growth, i.e., GI50) of the test compounds against various cancer cell lines.

[4] = tested on: A549 lung cancer cell line; test: Antiproliferative activity, A549; format: cell-based, human
Method: as §3, §4, §5

[5] = tested on: HCT116 colorectal cancer cell line; test: Antiproliferative activity, HCT116; format: cell-based; conditions: Homo sapiens, HCT-116
Method: as §3, §4, §5

[6] = tested on: HL60 leukemia cell line; test: Antiproliferative activity, HL60; format: cell-based; conditions: Homo sapiens, HL-60
Method: as §3, §4, §5

T1 sequence (Q13547 whole entry): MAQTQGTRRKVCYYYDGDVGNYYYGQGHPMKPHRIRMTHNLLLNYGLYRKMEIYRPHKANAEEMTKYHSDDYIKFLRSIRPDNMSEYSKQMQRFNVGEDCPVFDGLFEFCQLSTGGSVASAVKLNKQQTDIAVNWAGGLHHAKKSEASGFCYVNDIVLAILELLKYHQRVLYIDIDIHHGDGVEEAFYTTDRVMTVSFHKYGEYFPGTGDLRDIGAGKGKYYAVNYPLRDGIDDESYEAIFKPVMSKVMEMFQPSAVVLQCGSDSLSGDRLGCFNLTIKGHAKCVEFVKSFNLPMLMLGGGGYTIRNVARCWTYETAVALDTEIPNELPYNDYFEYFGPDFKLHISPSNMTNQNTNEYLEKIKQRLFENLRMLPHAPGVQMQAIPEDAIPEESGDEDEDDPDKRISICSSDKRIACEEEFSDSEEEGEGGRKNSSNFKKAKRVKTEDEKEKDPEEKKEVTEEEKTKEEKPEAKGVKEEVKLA

Structure (SMILES) | GI50 ([3]; Homo sapiens) [µM] | GI50 ([4]; Homo sapiens) [µM] | GI50 [5] [µM] | other results
O=C(NO)c1ccc(CNc2ccc3ncccc3c2)cc1 [Compound 20, N-hydroxy-4-((quinolin-6-ylamino)methyl)benzamide] | > 10 | > 10 |  | IC50 [1]: > 100 µM; IC50 [2]: 0.019 µM
O=C(/C=C/c1ccc(CNc2ccc3ncccc3c2)cc1)NO [Compound 22, (E)-N-hydroxy-3-(4-((quinolin-6-ylamino)methyl)phenyl)acrylamide] | > 10 | > 10 |  | 
O=C(NO)c1ccc(C(=O)Nc2ccc3ncccc3c2)cc1 [Compound 24, N^1-hydroxy-N^4-(quinolin-6-yl)terephthalamide] | > 10 | > 10 |  | 
O=C(/C=C/c1ccc(C(=O)Nc2ccc3ncccc3c2)cc1)NO [Compound 26, (E)-4-(3-(hydroxyamino)-3-oxoprop-1-enyl)-N-(quinolin-6-yl)benzamide] | > 10 | > 10 |  | 
O=C(NO)c1ccc(C(=O)Nc2cccc3cccnc23)cc1 [Compound 32, N^1-hydroxy-N^4-(quinolin-8-yl)terephthalamide] | > 10 | > 10 |  | 
O=C(NO)c1cccc(CNc2cccc3cccnc23)c1 [Compound 36, N-hydroxy-3-((quinolin-8-ylamino)methyl)benzamide] | > 10 |  | > 10 | 
O=C(NO)c1cccc(C(=O)Nc2cccc3cccnc23)c1 [Compound 38, M-hydroxy-N^3-(quinolin-8-yl)isophthalamide] | > 10 |  | > 10 | 
O=C(NO)c1ccc(CNc2ccnc3ccccc23)cc1 [Compound 44, N-hydroxy-4-((quinolin-4-ylamino)methyl)benzamide] |  |  | 3.28 ± 0.48 | 
O=C(Cc1ccc(C(=O)Nc2cccc3cccnc23)cc1)NO [Compound 50, 4-(2-(hydroxyamino)-2-oxoethyl)-N-(quinolin-8-yl)benzamide] | > 10 | > 10 |  | 
O=C(NO)c1ccc(Nc2cccc3cccnc23)cc1 [Compound 59, N-hydroxy-4-(quinolin-8-ylamino)benzamide] |  |  | 3.32 ± 0.21 | GI50 [6]: 6.64 ± 0.69 µM
O=C(NO)c1ccc(CNc2nccc3ccccc23)cc1 [Compound 61, N-hydroxy-4-((isoquinolin-1-ylamino)methyl)benzamide] |  |  | 0.66 ± 0.1 | GI50 [6]: 1.17 ± 0.23 µM
O=C(NO)c1ccc(CNc2cncc3ccccc23)cc1 [Compound 63, N-hydroxy-4-((isoquinolin-4-ylamino)methyl)benzamide] |  |  | 1.2 ± 0.14 | GI50 [6]: 1.96 ± 0.16 µM
O=C(NO)c1ccc(CNc2cccc3nccnc23)cc1 [Compound 66, N-hydroxy-4-((quinoxalin-5-ylamino)methyl)benzamide] |  |  | 1.95 ± 0.21 | GI50 [6]: 5.58 ± 0.15 µM
O=C(NO)c1ccc(COc2cccc3cccnc23)cc1 [Compound 71, N-hydroxy-4-((quinolin-8-yloxy)methyl)benzamide] | 6.23 ± 0.32 | 7.81 ± 1.17 |  | IC50 [2]: 0.011 µM
O=C(NO)c1ccc(NCc2cccc3cccnc23)cc1 [Compound 75, N-hydroxy-4-(quinolin-8-ylmethylamino)benzamide] | > 10 | 6.32 ± 0.92 |  | IC50 [1]: 2.04 µM; IC50 [2]: 0.011 µM
CN1CCc2c(c3ccccc3n2Cc2ccc(C(=O)NO)cc2)C1 [Tubastatin A, reference compound] |  |  |  | GI50 [3]: 48.19 ± 0.43 µM; GI50 [4]: 52.2 ± 1.28 µM

Now from value to compound, other results behind:

GI50 ([3]; Homo sapiens) [µM] | GI50 ([4]; Homo sapiens) [µM] | GI50 [5] [µM] | Structure (SMILES) | other results
1.62 ± 0.2 | 2.73 ± 0.24 |  | O=C(NO)c1ccc(CNc2cnc3ccccc3c2)cc1 [Compound 4, N-hydroxy-4-((quinolin-3-ylamino)methyl)benzamide] | IC50 [1]: 0.78 µM; IC50 [2]: 0.0191 µM
0.38 ± 0.03 | 0.71 ± 0.01 |  | O=C(/C=C/c1ccc(CNc2cnc3ccccc3c2)cc1)NO [Compound 6, (E)-N-hydroxy-3-(4-((quinolin-3-ylamino)methyl)phenyl)acrylamide] | 
> 10 | > 10 |  | O=C(NO)c1ccc(C(=O)Nc2cnc3ccccc3c2)cc1 [Compound 8, N^1-hydroxy-N^4-(quinolin-3-yl)terephthalamide] | 
> 10 | > 10 |  | O=C(/C=C/c1ccc(C(=O)Nc2cnc3ccccc3c2)cc1)NO [Compound 10, (E)-4-(3-(hydroxyamino)-3-oxoprop-1-enyl)-N-(quinolin-3-yl)benzamide] | 
0.62 ± 0.05 | 1.25 ± 0.08 |  | O=C(/C=C/c1ccc(CNc2cccc3ncccc23)cc1)NO [Compound 14, (E)-N-hydroxy-3-(4-((quinolin-5-ylamino)methyl)phenyl)acrylamide] | 
> 10 | > 10 |  | O=C(NO)c1ccc(C(=O)Nc2cccc3ncccc23)cc1 [Compound 16, N1-hydroxy-N4-(quinolin-5-yl)terephthalamide] | 
> 10 | > 10 |  | O=C(/C=C/c1ccc(C(=O)Nc2cccc3ncccc23)cc1)NO [Compound 18, (E)-4-(3-(hydroxyamino)-3-oxoprop-1-enyl)-N-(quinolin-5-yl)benzamide] | 
1.25 ± 0.02 | 1.11 ± 0.05 |  | O=C(/C=C/c1ccc(CNc2cccc3cccnc23)cc1)NO [Compound 30, (E)-N-hydroxy-3-(4-((quinolin-8-ylamino)methyl)phenyl)acrylamide] | 
3.51 ± 0.18 | 4.26 ± 0.07 |  | O=C(/C=C/c1ccc(C(=O)Nc2cccc3cccnc23)cc1)NO [Compound 34, (E)-4-(3-(hydroxyamino)-3-oxoprop-1-enyl)-N-(quinolin-8-yl)benzamide] | 
0.85 ± 0.09 |  | 0.29 ± 0.02 | O=C(NO)c1ccc(CNc2ccc3ccccc3n2)cc1 [Compound 40, N-hydroxy-4-((quinolin-2-ylamino)methyl)benzamide] | 
2.64 ± 0.14 |  | 0.62 ± 0.03 | O=C(NO)c1ccc(CNc2ccc3cccnc3c2)cc1 [Compound 42, N-hydroxy-4-((quinolin-7-ylamino)methyl)benzamide] | 
2.08 ± 0.1 | 7.77 ± 0.03 |  | O=C(NO)c1ccc(C(=O)NCc2cccc3cccnc23)cc1 [Compound 47, N^1-hydroxy-N^4-(quinolin-8-ylmethyl)terephthalamide] | 
9.66 ± 0.07 |  | 3.05 ± 0.09 | O=C(NO)c1ccc(CCc2cccc3cccnc23)cc1 [Compound 52, N-hydroxy-4-(2-(quinolin-8-yl)ethyl)benzamide] | 
6.06 ± 0.4 | 4.64 ± 0.25 |  | O=C(NO)c1ccc(CNc2cccc3cnccc23)cc1 [Compound 54, N-hydroxy-4-((isoquinolin-5-ylamino)methyl)benzamide] | 
4.91 ± 0.24 | 1.76 ± 0.21 |  | O=C(NO)c1ccc(CNc2cccc3ccncc23)cc1 [Compound 56, N-hydroxy-4-((isoquinolin-8-ylamino)methyl)benzamide] | 
4.45 ± 0.92 | 5.89 ± 0.42 |  | Cc1ccc2cccc(NCc3ccc(C(=O)NO)cc3)c2n1 [Compound 68, N-hydroxy-4-(((2-methylquinolin-8-yl)amino)methyl)benzamide] | IC50 [1]: 1.69 µM; IC50 [2]: 0.0121 µM
4.29 ± 0.7 | 6.11 ± 0.69 |  | O=C(NO)c1ccc(CSc2cccc3cccnc23)cc1 [Compound 73, N-hydroxy-4-((quinolin-8-ylthio)methyl)benzamide] | IC50 [1]: 2.2 µM; IC50 [2]: 0.0234 µM
